Laboratory results reported in US10759810B2 (AO “TATKHIMFARMPREPARATY”, priority 2016, dated 2020).

How the values were obtained:
Assay type in all cases: cell-based
[1] = system: gram-positive microorganisms; assay: Antibacterial activity (MIC), gram-positive strains; details: in words, versus comparison drugs
Procedure: (§1) Measurement of antibacterial activity was carried out on the strains of Staphylococcus aureus ATCC 29213 (museum strain), Staphylococcus epidermidis (clinical isolate), Micrococcus luteus (clinical isolate), Bacillus subtilis 168 (museum strain), Escherichia coli ATCC 25922 (museum strain), Salmonella typhimurium TA100 (museum strain), Pseudomonas aeruginosa ATCC 27853 (museum strain). A comparative assessment of the spectrum of antibacterial action on reference strains and clinical isolates of gram-positive microorganisms was carried out using a micromethod for determining the minimum inhibitory concentration (MIC) using serial dilutions in Mueller-Hinton broth using 96-well sterile plates.
(§2) The first lowest concentration of the antibiotic (from a series of successive dilutions), where bacterial growth is not visually determined, is considered to be the minimum inhibitory concentration (MIC).
(§3) For the preparation of inoculum (infectious material used for artificial contamination), intended for the study of antibacterial activity, was used a pure daily culture of bacteria grown on a dense nutrient medium (agar LB medium). […] The inoculum was used for 15 minutes after preparation; the purity of the bacterial strains was monitored before each experiment. […]

[2] = system: Pseudomonas aeruginosa ATCC 27853 (museum strain); assay: MIC, serial dilutions in Mueller-Hinton broth; details: inoculum 10^7 CFU/ml; gram-negative
Procedure: as §1, §2
(§4) For the preparation of inoculum (infectious material used for artificial contamination), intended for the study of antibacterial activity, was used a pure daily culture of bacteria grown on a dense nutrient medium (agar LB medium). In a sterile isotonic solution of sodium chloride, a suspension of microorganisms was prepared, adjusting the inoculum density to 0.5 according to the McFarland standard (1.5·10^8 CFU/ml). Then, the resulting inoculum was diluted to a concentration of 10^7 CFU/ml with LB-broth. The inoculum was used for 15 minutes after preparation; the purity of the bacterial strains was monitored before each experiment.
(§5) 100 μl of Muller-Hinton broth was added to the wells of each plate; the test base was introduced into the first well at a concentration of 128 μg/ml in a volume of 100 μl and its concentration was adjusted to 0.25 μg/ml by consecutive two-fold dilution. […] Each preparation in the experiment was titrated three times. […] In addition, the purity of nutrient media and solvents was monitored. The plates were incubated in a thermostat at […] for 24 hours.
(§6) The growth of cultures was assessed visually, comparing the growth of microorganisms in the presence of test compounds with the growth of culture without them.

[3] = system: Micrococcus luteus (clinical isolate); assay: MIC, serial dilutions in Mueller-Hinton broth; details: inoculum 10^7 CFU/ml; gram-positive
Procedure: as §1, §2, §4, §5, §6

[4] = system: Salmonella typhimurium TA100 (museum strain); assay: MIC, serial dilutions in Mueller-Hinton broth; details: inoculum 10^7 CFU/ml; gram-negative
Procedure: as §1, §2, §4, §5, §6

[5] = system: Staphylococcus epidermidis (clinical isolate); assay: MIC, serial dilutions in Mueller-Hinton broth; details: inoculum 10^7 CFU/ml; gram-positive
Procedure: as §1, §2, §4, §5, §6

[6] = system: Bacillus subtilis 168 (museum strain); assay: MIC, serial dilutions in Mueller-Hinton broth; details: inoculum 10^7 CFU/ml; gram-positive
Procedure: as §1, §2, §4, §5, §6

[7] = system: Staphylococcus aureus ATCC 29213 (museum strain); assay: MIC, serial dilutions in Mueller-Hinton broth; details: inoculum 10^7 CFU/ml; gram-positive
Procedure: as §1, §2, §4, §5, §6

[8] = system: Escherichia coli ATCC 25922 (museum strain); assay: MIC, serial dilutions in Mueller-Hinton broth; details: inoculum 10^7 CFU/ml; gram-negative
Procedure: as §1, §2, §4, §5, §6

[9] = system: microorganism strains under study; assay: Antibacterial activity (MIC), whole strain panel; details: in words, from Table 1
Procedure: as §1, §2, §3

**Q.** With “1-cyclopropyl-6-fluoro-7-(4-((5-hydroxy-2,4-bis(hydroxymethyl)-6-methylpyridine-3-yl) methyl) piperazinyl)-4-oxo-1,4-dihydroquinolin-3-carboxylic acid [Compound I-9]” as the substance, how does the “antibacterial action with respect to gram-positive microorganisms” value [1] read?
**A.** Its value is “comparable with the comparison drugs”.

**Q.** What about the “MIC, P. aerugenosa” value [2] of the same substance?
**A.** Its value is greater than 64 µg/mL.

**Q.** What about the “MIC, M. luteus” value [3] of the same substance?
**A.** The value was 2 µg/mL.

**Q.** What about the “MIC, S. typhimurium” value [4] of the same substance?
**A.** Its value is 4 µg/mL.

**Q.** And the “MIC, S. epidermidis” value [5]?
**A.** Its value is 8 µg/mL.

**Q.** And the “MIC, B. subtilis” value [6]?
**A.** The value was 4 µg/mL.

**Q.** And the “MIC, S. aureus” value [7]?
**A.** The value was 0.5 µg/mL.

**Q.** What about the “MIC, E. coli” value [8] of the same substance?
**A.** The value was 64 µg/mL.

**Q.** What about the “antibacterial activity against the microorganism strains under study” value [9] of the same substance?
**A.** The value was “most active”.
